Read-outs that look alike come from different tables or passages of the source.
Legend:
[1] = Assessment of Plasma Exposure in DBA/2J mice; assay type: in vivo, mouse; conditions: for half-life / AUC(0-t) / Cmax / AUC(0-inf) / Tmax: male, DBA/2J, mouse plasma; for half-life / AUC(0-t) / Cmax / AUC(0-inf): mouse, plasma, po; for AUC(0-inf): read-out: AUCINFobs
[2] = Observation for mortality and signs of pain or distress, D2-mdx mice; assay type: in vivo; conditions: male D2-mdx mice, 100 mg/kg IP daily for 3 days
Method: (§1) Experimental Design: Compound 9 was suspended in 0.5% Hydroxypropyl Methylcellulose (HPMC)/0.1% Tween® 80 to a final concentration of 10 mg/mL. The dosing solutions were prepared prior to the start of the test and were stored in the dark and maintained in frozen aliquots. Doses were thawed prior to administration. Male D2-mdx (JAX Stock No: 013141) mice were sourced from The Jackson Laboratory and housed in solid bottom cages with standard chow and water ad libitum. Dosing was initiated when animals were ˜3 weeks old. Animals were dosed daily by intraperitoneal (IP) injection at 100 mg/kg or vehicle for 3 days. […] Mice were sacrificed by CO2 euthanasia approximately 6 hours after their day 3 dosing. Heart, diaphragm, quadriceps, tibialis anterior (TA) samples were collected at termination on day 3 and snap frozen. These samples were shipped on dry ice for analysis, and were stored at −80° C.

[3] = Observation for mortality and signs of pain or distress, DBA/2J mice; assay type: in vivo; conditions: male DBA/2J mice, single dose, up to 100 mg/kg
Method: (§2) Experimental Design: Compound 9 was suspended in 0.5% Hydroxypropyl Methylcellulose (HPMC)/0.1% Tween® 80 to a final concentration of 10 mg/mL. The dosing solutions were prepared prior to the start of the test. Male DBA/2J mice (Jackson Stock No: 000671) were housed in solid bottom cages with standard chow and water ad libitum. Dosing was initiated when animals were 7-8 weeks old. Mice were dosed at a volume of 10 mL/kg by intraperitoneal (IP) injection at 100 mg/kg or vehicle. […] Blood was collected at 15 min, 30 min, 1 h, 2 h, 4 h, 7 h, 16 h, 24 h by cardiac puncture, mixed gently 8 times and put on ice until centrifuged within 30 minutes of collection. The plasma was transferred to a 96-well plate for analysis of test compound levels.

Smad2 phosphorylation = assay: Phospho-Smad2 analysis of muscle tissue in the D2-mdx mouse model (western blot, densitometry); assay type: in vivo
Excerpt: The experiment described herein was designed to monitor the effects of Compound 9 on two biomarkers related to fibrosis in D2-mdx mice. The first biomarker is Smad2 phosphorylation, and the second is the levels of serum albumin in the different muscle tissues. Fibrosis causes disruption of the fine transparent tubular sheath which envelops the fibers of skeletal muscles, this can result in various molecules from the blood and interstitial fluid leaking into myofibres. A classic example is serum albumin, which can be identified in tissue sections and considered to be hallmark of myofibre permeability.
as §1
Tissue protein extraction: Frozen tissues were placed on ice in prechilled tubes with 30 μL/mg with of ice-cold RIPA buffer+Halt™ Protease & Phosphatase Inhibitor Cocktail. Tissue was homogenized with a manual tissue homogenizer then centrifuged at 14,000 RPM at 4° C. for 15 min. Supernatant was removed and protein concentration determined by BCA assay.
Western blot protocol: Equal amounts of protein (15-50 μg) were separated by SDS-PAGE and transferred to nitrocellulose membranes (Invitrogen by Thermo Fisher Scientific). The membrane was stained with Ponceau S Stain (Boston BioProducts) to verify uniform protein loading. Membranes were blocked with 10% milk and albumin levels were assessed by incubating overnight at 4° C. with albumin antibody (Cell Signaling Technology #4929). Then the membranes were incubated with HRP-conjugated secondary antibody (Jackson Immunoresearch, West Grove, PA). Bands were incubated in Amersham ECL Prime Western Blotting Detection Reagent (GE Healthcare) and visualized using the ChemiDoc MP imaging system (Bio-Rad).
Western blot images for samples collected from heart (FIG. 2), diaphragm (FIG. 3), quadriceps (FIG. 4), and tibialis anterior (TA, FIG. 5) tissues following termination on day 3 were analyzed, providing the results summarized herein below (derived by densitometry).

[4] = Assessment of Plasma Exposure in DBA/2J mice; assay type: in vivo, mouse
Method: as §2
Preparation of Standard Solutions for Calibration of UPLC: Assay: 2 mg/mL in DMSO Stock solutions of reference standard of Compound 9 was freshly prepared. 15 uL of the 2 mg/mL DMSO stock solution of Compound 9 was spiked into a vial and diluted to a final volume of 1 mL (30 ug/mL). 100 uL of the 30 ug/mL solution was mixed with 900 uL methanol (final conc. 3 ug/mL). A calibration curve was obtained from solutions having concentrations of 0.001, 0.003, 0.01, 0.03, 0.1, 0.5 and 1 ug/mL, which were prepared further dilution of the 3 ug/mL solution with methanol. An internal standard of D3-desacetylDFZ (500 ng/mL in methanol) was used. • UPLC Conditions: • Column: Waters UPLC Acquity BEH C18 Column 2.1*50, 1.7 uM • Mobile phase: A: 0.1% formic acid in water; B: 0.1% formic acid in 100% acetonitrile • Gradient:
• Temperature: 50° C. • Run time: 2 min • Injection volume=2 uL • Instrument: Waters TQ-s • Desolvation Temperature: 500° C. • Desolvation gas flow: 1000 L/hr • Capillary Cone voltage: 0.5 • Reference batch: 21-hydroxy emflaza, Compound 9
Preparation of Samples for UPLC: Protein Precipitation Method Using Millipore Hydrophilic Plate (MSRLN04) to Filter the Precipitated Protein • 1) Plasma calibration curve for positively charged compound: all in the filter plate added • a) IS-410000 in acetonitrile (0.1 ug/mL) 200 uL • b) Calibration curve in methanol: 20 uL • c) Methanol: 20 uL • d) Control mouse plasma: 20 uL • 2) Test plasma • a) IS-410000 in acetonitrile (0.1 ug/mL) 200 uL • b) Calibration curve in methanol: 20 uL • c) Test plasma: 20 uL
Placed sample on automatic shaker for at least 5 min
Centrifuged at 2000 rpm (Eppendorf 5804) for 2 min. 2-2.5 uL supernatant were injected onto LCMS system

[5] = 25 mg/kg, Group 2: 25 mg/kg PO, Vehicle 1
[6] = 100 mg/kg, Group 3: 100 mg/kg PO, Vehicle 1
[7] = 100 mg/kg, Group 4: 100 mg/kg PO, Vehicle 2
[8] = D2-mdx mice, 100 mg/kg IP, 3 days
[9] = Ratio of Vehicle and Treated, 100 mg/kg IP, 3 days
[10] = Treated, 100 mg/kg IP daily for 3 days, D2-mdx mice, densitometry
[11] = male, DBA/2J, mouse, plasma, ip, 100 mg/kg, Group 5: 100 mg/kg IP, Vehicle 1, mouse plasma

COCCNc1nc(-c2nccn2C)nc2sc(-c3cccc(OC)c3Cl)c(-c3ccccc3)c12 [Compound 9, 6-(2-Chloro-3-methoxyphenyl)-N-(2-methoxyethyl)-2-(1-methyl-1H-imidazol-2-yl)-5-phenylthieno[2,3-d]pyrimidin-4-amine]
Exposures (AUC), dose dependence ([1]; Groups 2 and 3: 25 and 100 mg/kg PO, Vehicle 1): dose proportional
half-life ([1]; 25 mg/kg, Group 2: 25 mg/kg PO, Vehicle 1 (0.5% HPMC with 0.1% Tween 80)): 2.9 h
AUC(0-t) [1, 5]: 3880 ng·h/mL
Cmax [1, 5]: 703 ng/mL
AUC(0-inf) [1, 5]: 3900 ng·h/mL
AUC(0-t) [1, 6]: 16700 ng·h/mL
Cmax [1, 6]: 1960 ng/mL
half-life [1, 6]: 2.11 h
AUC(0-inf) [1, 6]: 16700 ng·h/mL
half-life ([1]; 100 mg/kg, Group 4: 100 mg/kg PO, Vehicle 2 (Solubilized Lipid)): 2.3 h
AUC(0-t) [1, 7]: 17100 ng·h/mL
Cmax [1, 7]: 2090 ng/mL
AUC(0-inf) [1, 7]: 17200 ng·h/mL
Tmax ([1]; Group 2: 25 mg/kg PO, Vehicle 1): 4 h
Tmax ([1]; Group 3: 100 mg/kg PO, Vehicle 1): 4 h
Exposures (AUC), Vehicle 1 compared to Vehicle 2 ([1]; oral dosing (PO), 100 mg/kg): similar
findings of overt toxicity [2]: No findings of overt toxicity were observed
findings of overt toxicity [3]: No findings of overt toxicity were observed
Smad2 phosphorylation in the diaphragm compared to control vehicle mice (Smad2 phosphorylation; [8]): inhibition of Smad2 phosphorylation
Smad2 phosphorylation in the heart (Smad2 phosphorylation; [8]): No changes were detected
Phospho-Smad2, Diaphragm, Average, Ratio (Smad2 phosphorylation; [9]): 1.53
Phospho-Smad2, Diaphragm, Median, Ratio (Smad2 phosphorylation; [9]): 1.54
Phospho-Smad2, Quadriceps, Average, Ratio (Smad2 phosphorylation; [9]): 1.10
Phospho-Smad2, Quadriceps, Median, Ratio (Smad2 phosphorylation; [9]): 0.64
Phospho-Smad2, Diaphragm, Average (Smad2 phosphorylation; [10]): 0.18 ± 0.06
Phospho-Smad2, Diaphragm, Median (Smad2 phosphorylation; [10]): 0.19
Phospho-Smad2, Quadriceps, Average (Smad2 phosphorylation; [10]): 0.22 ± 0.11
Phospho-Smad2, Quadriceps, Median (Smad2 phosphorylation; [10]): 0.28
Exposures, intraperitoneal (IP) injection compared to oral dosing ([4]; Group 5 compared to Group 3, 100 mg/kg): higher
AUC(0-t) [4, 11]: 43000 ng·h/mL
Cmax [4, 11]: 26000 ng/mL
half-life [4, 11]: 2.96 h
AUC(0-inf) ([4]; male, DBA/2J, mouse, plasma, ip, 100 mg/kg, Group 5: 100 mg/kg IP, Vehicle 1, mouse plasma, read-out: AUCINFobs): 43200 ng·h/mL
Tmax ([4]; male, DBA/2J, Group 5: 100 mg/kg IP, Vehicle 1, mouse plasma): 0.25 h

From US20240124483A1, “Methods for the Treatment of Fibrotic Disease” (SHY Therapeutics, LLC, priority 2021, published 2024)
